US5750522A, “Pyrrolo[1,2-d] [1,2,4]triazine derivatives” (American Home Products Corporation, priority 1996, dated 1998)
Counter-ions that a name gives are not always drawn.

Assays:
[1] = continuous infusion over 2 weeks used because of it; cited from earlier work
[2] = test system: patients with mild to moderate Alzheimer's disease; conditions: cited from earlier work
ml muscarinic receptor = ml muscarinic receptor (Homo sapiens, UniProt P11229); test: biochemical; format: binding
[3] = target: T1, M1 acetylcholine receptors (ml receptors in CHO cells) (Homo sapiens, UniProt P11229); test: cell-based; conditions: at 30x Ki (μM), carb = 100%, 1 h, 37° C., read-out: % PI Hydrolysis ml receptors in CHO cells
T1 sequence (P11229 1-460): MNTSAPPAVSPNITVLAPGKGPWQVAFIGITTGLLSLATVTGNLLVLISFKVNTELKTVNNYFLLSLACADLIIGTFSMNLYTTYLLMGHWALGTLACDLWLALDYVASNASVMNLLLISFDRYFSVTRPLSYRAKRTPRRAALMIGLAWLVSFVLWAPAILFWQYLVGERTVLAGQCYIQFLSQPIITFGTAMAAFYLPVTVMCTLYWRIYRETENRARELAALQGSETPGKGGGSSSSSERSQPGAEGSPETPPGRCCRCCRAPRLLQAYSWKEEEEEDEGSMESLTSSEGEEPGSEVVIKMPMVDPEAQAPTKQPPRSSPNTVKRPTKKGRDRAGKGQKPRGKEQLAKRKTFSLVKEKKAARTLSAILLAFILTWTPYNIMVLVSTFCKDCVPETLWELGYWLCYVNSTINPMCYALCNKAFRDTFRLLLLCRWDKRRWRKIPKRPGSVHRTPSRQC

[4] = quaternary ammonium group; background statement; cited from earlier work
ml receptors = conditions: background statement; cited from earlier work
[5] = test system: patients with mild to moderate Alzheimer's disease; conditions: especially at the higher doses where it is most effective; cited from earlier work

For COC(=O)C1=CCCN(C)C1 [arecoline], the half-life [1] is listed as “short half-life” and the improvement in memory [2] is listed as “memory improvement in patients with mild to moderate Alzheimer's disease”.

Cc1nnc(NC2CN3CCC2CC3)n2cccc12 (stereo not shown) [Example 4, (1-Azabicyclo[2.2.2]oct-3-yl)-1-methylpyrrolo[1,2-d][1,2,4]triazin-4-ylamine dihydrochloride] showed an IC50 (ml muscarinic receptor) of 20200 nM.

Cc1nnc(NCCCN2CC3CCC(CC3)C2)n2cccc12 [Example 2, [4-(3-Azabicyclo[3.2.2.]-3-propyl]-(1-methylpyrrolo[1,2-d][1,2,4]triazin-4-yl)aminedihydrochloride] showed a Ki (ml muscarinic receptor) of 1390 nM.

Compound Cc1nnc(NCCCCN2CC3CCC(CC3)C2)n2cccc12 [Example 1, [4-(3-Azabicyclo[3.2.2]-3-yl)-butyl]-(1-methylpyrrolo[1,2-d][1,2,4]triazin-4-yl)amine dihydrochloride] has a Ki (ml muscarinic receptor) of 310 nM.

With Cc1nnc(NCCN2CC3CCC(CC3)C2)n2cccc12 [Example 3, [4-(3-Azabicyclo[3.2.2]non-3-yl)ethyl]-(1-methylpyrrolo[1,2-d][1,2,4]triazin-4-yl)amine dihydrochloride] the Emax [3] was 24% and the Ki (ml muscarinic receptor) was 4450 nM.

In the case of C[N+](C)(C)CCOC(N)=O [carbachol], the “ability to enter the CNS” value [4] is listed as “not able to enter the CNS” and the “activation of ml receptors” value (ml receptors) is listed as “able to fully activate ml receptors”.

For C[C@@H]1O[C@H](C[N+](C)(C)C)C[C@H]1O [muscarine], the “ability to enter the CNS” value [4] is given as “not able to enter the CNS” and the “activation of ml receptors” value (ml receptors) is given as “able to fully activate ml receptors”.

For Nc1c2c(nc3ccccc13)CCCC2 [tacrine], the adverse side effects [5] is given as “adverse side effects especially at the higher doses where it is most effective” and the improvement in memory [2] is given as “improvement in memory can be shown in patients with mild to moderate Alzheimer's disease”.
